Laboratory results as given in patent publication US8691865B2 (AbbVie Inc., priority 2008, dated 2014).

Each compound was assayed against human Cav2.2 (Homo sapiens, UniProt Q00975) (assay: Assessment of calcium channel activity using FLIPR (Ca2+ influx in IMR32 cells)). Settings: not given.
Format: cell-based
Procedure: (i) In Vitro Methods—Assessment of Calcium Channel Activity Using FLIPR:
The IMR32 cells were maintained in MEM media containing 10% (v/v) FBS, 1% (v/v) antibiotic/antimitotic, 1% (v/v) sodium pyruvate and 1% (v/v) MEM NEAA. Following dissociation in 0.05% (v/v) trypsin/EDTA, cells were seeded into black 1×96-well plates (Corning Cellbind) at a density of 1−1.2×10^5 cells/well and incubated in the maintenance media above for 48 hours at 37° C. […] To determine the IC50 values, the percent inhibition of the compound at each concentration was determined relative to the activity in the absence of inhibitor, and data was fitted using non-linear regression sigmoidal dose response curve analysis with GraphPad Prism®.

human Cav2.2, sequence (Q00975 whole entry): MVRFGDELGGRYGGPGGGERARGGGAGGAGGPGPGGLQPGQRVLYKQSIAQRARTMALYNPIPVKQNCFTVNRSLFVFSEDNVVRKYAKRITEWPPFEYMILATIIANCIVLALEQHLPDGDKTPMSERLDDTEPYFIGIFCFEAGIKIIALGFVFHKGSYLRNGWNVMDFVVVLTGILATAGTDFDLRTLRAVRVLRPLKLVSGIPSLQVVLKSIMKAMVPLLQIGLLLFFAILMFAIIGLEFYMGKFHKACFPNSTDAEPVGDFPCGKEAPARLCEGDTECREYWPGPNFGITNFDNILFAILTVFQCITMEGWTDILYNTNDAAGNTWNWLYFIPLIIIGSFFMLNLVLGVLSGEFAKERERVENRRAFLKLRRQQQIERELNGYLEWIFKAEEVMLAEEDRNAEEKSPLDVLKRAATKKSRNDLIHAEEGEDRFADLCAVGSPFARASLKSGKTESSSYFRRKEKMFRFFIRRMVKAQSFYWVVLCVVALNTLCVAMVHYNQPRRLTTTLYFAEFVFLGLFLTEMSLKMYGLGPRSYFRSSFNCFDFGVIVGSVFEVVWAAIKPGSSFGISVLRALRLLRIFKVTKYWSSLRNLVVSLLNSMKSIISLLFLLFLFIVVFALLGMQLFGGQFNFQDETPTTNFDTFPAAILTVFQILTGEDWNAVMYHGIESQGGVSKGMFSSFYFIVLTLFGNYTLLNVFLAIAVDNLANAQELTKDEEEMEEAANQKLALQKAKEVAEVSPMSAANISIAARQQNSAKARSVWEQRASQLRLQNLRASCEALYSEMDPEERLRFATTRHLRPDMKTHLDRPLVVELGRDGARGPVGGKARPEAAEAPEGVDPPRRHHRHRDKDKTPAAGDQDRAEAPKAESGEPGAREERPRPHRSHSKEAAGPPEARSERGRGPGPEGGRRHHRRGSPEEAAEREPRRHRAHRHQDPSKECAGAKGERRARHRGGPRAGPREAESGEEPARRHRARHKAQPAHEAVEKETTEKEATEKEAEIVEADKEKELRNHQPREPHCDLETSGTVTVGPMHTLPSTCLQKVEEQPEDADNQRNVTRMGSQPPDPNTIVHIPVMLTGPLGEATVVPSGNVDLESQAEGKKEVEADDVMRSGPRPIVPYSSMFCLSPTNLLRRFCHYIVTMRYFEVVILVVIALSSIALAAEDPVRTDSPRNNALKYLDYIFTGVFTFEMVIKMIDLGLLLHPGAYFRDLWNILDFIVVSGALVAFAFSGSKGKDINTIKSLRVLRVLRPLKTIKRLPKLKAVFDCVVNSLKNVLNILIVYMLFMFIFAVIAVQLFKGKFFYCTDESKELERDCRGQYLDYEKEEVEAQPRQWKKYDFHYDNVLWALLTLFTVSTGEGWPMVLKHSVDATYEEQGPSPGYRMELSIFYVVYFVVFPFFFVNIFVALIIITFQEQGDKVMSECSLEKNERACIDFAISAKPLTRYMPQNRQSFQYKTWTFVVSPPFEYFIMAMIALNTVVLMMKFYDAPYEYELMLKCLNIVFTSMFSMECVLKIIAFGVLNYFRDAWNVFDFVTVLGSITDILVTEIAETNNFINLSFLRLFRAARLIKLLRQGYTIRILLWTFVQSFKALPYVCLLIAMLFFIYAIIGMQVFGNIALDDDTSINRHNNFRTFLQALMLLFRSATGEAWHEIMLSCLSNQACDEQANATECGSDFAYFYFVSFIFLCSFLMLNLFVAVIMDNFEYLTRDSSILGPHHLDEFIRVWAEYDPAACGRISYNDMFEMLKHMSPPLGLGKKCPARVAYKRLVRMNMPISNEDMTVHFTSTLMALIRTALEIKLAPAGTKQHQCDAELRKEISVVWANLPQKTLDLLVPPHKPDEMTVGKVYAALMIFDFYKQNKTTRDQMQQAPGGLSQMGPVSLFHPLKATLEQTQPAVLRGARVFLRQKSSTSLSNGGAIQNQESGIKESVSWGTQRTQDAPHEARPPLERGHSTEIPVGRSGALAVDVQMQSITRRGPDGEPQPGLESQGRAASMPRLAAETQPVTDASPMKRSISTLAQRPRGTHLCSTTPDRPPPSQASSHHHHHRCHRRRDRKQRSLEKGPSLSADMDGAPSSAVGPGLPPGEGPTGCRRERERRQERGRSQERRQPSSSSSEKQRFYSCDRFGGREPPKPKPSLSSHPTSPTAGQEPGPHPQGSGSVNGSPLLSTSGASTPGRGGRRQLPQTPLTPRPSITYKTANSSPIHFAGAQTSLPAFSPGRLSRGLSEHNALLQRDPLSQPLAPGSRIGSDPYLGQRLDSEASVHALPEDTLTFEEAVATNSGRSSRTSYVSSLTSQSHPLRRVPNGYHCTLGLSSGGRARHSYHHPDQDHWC
human Cav2.2, sequence (P54289 25-956 partner limits assumed): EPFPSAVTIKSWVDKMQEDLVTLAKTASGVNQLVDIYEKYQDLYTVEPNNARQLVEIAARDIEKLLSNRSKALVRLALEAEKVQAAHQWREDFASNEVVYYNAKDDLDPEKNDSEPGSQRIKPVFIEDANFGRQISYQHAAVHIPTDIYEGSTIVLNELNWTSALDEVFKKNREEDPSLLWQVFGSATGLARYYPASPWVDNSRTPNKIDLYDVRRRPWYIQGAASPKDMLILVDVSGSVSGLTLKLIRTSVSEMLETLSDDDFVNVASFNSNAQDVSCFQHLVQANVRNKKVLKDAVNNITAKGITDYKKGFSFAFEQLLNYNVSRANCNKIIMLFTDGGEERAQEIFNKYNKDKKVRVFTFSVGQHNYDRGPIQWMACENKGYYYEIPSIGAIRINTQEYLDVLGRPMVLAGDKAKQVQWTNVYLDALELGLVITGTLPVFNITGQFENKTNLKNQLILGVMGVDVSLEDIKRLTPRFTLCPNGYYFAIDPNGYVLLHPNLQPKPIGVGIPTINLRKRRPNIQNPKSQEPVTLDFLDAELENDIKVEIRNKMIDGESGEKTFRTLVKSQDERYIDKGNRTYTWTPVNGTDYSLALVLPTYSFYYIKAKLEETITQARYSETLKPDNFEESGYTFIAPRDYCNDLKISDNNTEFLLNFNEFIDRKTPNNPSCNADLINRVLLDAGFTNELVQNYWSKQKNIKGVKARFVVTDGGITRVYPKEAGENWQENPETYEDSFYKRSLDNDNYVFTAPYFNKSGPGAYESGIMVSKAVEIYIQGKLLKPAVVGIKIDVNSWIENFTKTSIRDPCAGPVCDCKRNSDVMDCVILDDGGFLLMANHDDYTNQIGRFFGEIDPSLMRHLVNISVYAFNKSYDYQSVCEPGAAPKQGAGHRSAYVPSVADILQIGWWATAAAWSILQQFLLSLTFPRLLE
human Cav2.2, sequence (P54289 957-1103 partner limits assumed): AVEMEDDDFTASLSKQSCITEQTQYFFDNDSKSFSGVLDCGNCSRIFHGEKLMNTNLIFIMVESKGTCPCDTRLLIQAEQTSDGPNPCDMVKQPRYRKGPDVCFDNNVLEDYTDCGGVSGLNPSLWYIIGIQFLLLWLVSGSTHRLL
human Cav2.2, sequence (P54284 whole entry partner): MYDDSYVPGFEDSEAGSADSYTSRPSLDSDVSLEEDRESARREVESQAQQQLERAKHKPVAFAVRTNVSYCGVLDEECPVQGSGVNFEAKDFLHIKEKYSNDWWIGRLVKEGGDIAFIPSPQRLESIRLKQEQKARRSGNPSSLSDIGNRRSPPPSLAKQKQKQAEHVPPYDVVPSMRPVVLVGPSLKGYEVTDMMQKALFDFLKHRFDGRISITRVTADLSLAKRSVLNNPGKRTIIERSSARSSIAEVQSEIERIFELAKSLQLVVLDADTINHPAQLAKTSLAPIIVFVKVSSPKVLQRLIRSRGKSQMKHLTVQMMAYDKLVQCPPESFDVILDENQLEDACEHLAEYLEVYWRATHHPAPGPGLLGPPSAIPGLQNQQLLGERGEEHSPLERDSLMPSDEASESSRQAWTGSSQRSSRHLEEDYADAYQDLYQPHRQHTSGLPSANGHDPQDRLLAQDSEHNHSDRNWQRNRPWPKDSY

Row | Structure (SMILES) | IC50
1 | CC(C)C[C@@H](C(=O)N[C@@H]1CC[C@H]2CN(Cc3ccccc3)C[C@H]21)N1CCOCC1 [Example 249, (2S)-N-[(3aS,4R,6aR)-2-benzyloctahydrocyclopenta[c]pyrrol-4-yl]-4-methyl-2-morpholin-4-ylpentanamide] | > 30 µM
2 | O=C(N[C@H]1CC[C@H]2CN(Cc3cccc(C(F)(F)F)c3)C[C@H]21)C1CCCCC1 (relative stereo) [Example 127, N-{(3aS*,4S*,6aR*)-2-[3-(trifluoromethyl)benzyl]octahydrocyclopenta[c]pyrrol-4-yl}cyclohexanecarboxamide] | 1.26 µM
3 | O=S(=O)(N[C@H]1CC[C@@H]2CN(c3cccc(C(F)(F)F)n3)C[C@@H]21)c1ccccc1Cl [Example 701, 2-chloro-N-{(3aR,4S,6aS)-2-[6-(trifluoromethyl)pyridin-2-yl]octahydrocyclopenta[c]pyrrol-4-yl}benzenesulfonamide] | 4.5 µM
4 | O=C(Nc1ccc(Cl)cc1)N[C@H]1CC[C@@H]2CN(c3cccc(C(F)(F)F)n3)C[C@@H]21 [Example 713, 1-(4-chlorophenyl)-3-{(3aR,4S,6aS)-2-[6-(trifluoromethyl)pyridin-2-yl]octahydrocyclopenta[c]pyrrol-4-yl}urea] | 2.99 µM
5 | CN[C@@H](CC(C)C)C(=O)N[C@H]1CC[C@@H]2CN(c3ccnc(C(F)(F)F)n3)C[C@@H]21 [Example 723, N^2-methyl-N-{(3aR,4S,6aS)-2-[2-(trifluoromethyl)pyrimidin-4-yl]octahydrocyclopenta[c]pyrrol-4-yl}-L-leucinamide] | 11.9 µM
6 | O=C(N[C@H]1CC[C@@H]2CN(c3cccc(C(F)(F)F)n3)C[C@@H]21)[C@@H]1CC(F)(F)CN1 [Example 595, 4,4-difluoro-N-{(3aR,4S,6aS)-2-[6-(trifluoromethyl)pyridin-2-yl]octahydrocyclopenta[c]pyrrol-4-yl}-L-prolinamide] | 2.18 µM
7 | O=C(N[C@@H]1CC[C@H]2CN(Cc3cccc(C(F)(F)F)c3)C[C@H]21)C(C1CCCCC1)C1CCCCC1 [Example 75, 2,2-dicyclohexyl-N-{(3aS,4R,6aR)-2-[3-(trifluoromethyl)benzyl]octahydrocyclopenta[c]pyrrol-4-yl}acetamide] | 0.45 µM
8 | CC[C@H](C)[C@H](NC)C(=O)N[C@H]1CC[C@@H]2CN(S(=O)(=O)c3ccc(C(F)(F)F)cc3)C[C@@H]21 [Example 411, N^2-methyl-N^1-((3aR,4S,6aS)-2-{[4-(trifluoromethyl)phenyl]sulfonyl}octahydrocyclopenta[c]pyrrol-4-yl)-L-isoleucinamide] | 2.31 µM
9 | O=C(N[C@H]1CC[C@H]2CN(Cc3cccc(C(F)(F)F)c3)C[C@H]21)C(O)(C1CCCCC1)C1CCCCC1 [Example 152, 2,2-dicyclohexyl-2-hydroxy-N-{(3aS,4S,6aR)-2-[3-(trifluoromethyl)benzyl]octahydrocyclopenta[c]pyrrol-4-yl}acetamide] | 0.51 µM
10 | O=S(=O)(N[C@@H]1CC[C@H]2CN(CCC(c3ccc(F)cc3)c3ccc(F)cc3)C[C@H]21)c1cccc(C(F)(F)F)c1 [Example 193, N-{(3aS,4R,6aR)-2-[3,3-bis(4-fluorophenyl)propyl]octahydrocyclopenta[c]pyrrol-4-yl}-3-(trifluoromethyl)benzenesulfonamide] | 0.57 µM
11 | CN[C@@H](CC(C)C)C(=O)N[C@H]1CC[C@@H]2CN(c3cccc(F)c3)C[C@@H]21 [Example 629, N-[(3aR,4S,6aS)-2-(3-fluorophenyl)octahydrocyclopenta[c]pyrrol-4-yl]-N^2-methyl-L-leucinamide] | 4.22 µM
12 | CC(C)CC(=O)N[C@H]1CC[C@@H]2CN(Cc3ccccc3)C[C@@H]21 [Example 230, N-[(3aR,4S,6aS)-2-benzyloctahydrocyclopenta[c]pyrrol-4-yl]-3-methylbutanamide] | > 30 µM
13 | O=S(=O)(Cc1ccc(Cl)cc1)N[C@H]1CC[C@@H]2CN(c3cccc(C(F)(F)F)n3)C[C@@H]21 [Example 717, 1-(4-chlorophenyl)-N-{(3aR,4S,6aS)-2-[6-(trifluoromethyl)pyridin-2-yl]octahydrocyclopenta[c]pyrrol-4-yl}methanesulfonamide] | 3.54 µM
14 | O=C(N[C@H]1CC[C@H]2CN(Cc3cccc(C(F)(F)F)c3)C[C@H]21)C1CCCCCC1 (relative stereo) [Example 128, N-{(3aS*,4S*,6aR*)-2-[3-(trifluoromethyl)benzyl]octahydrocyclopenta[c]pyrrol-4-yl}cycloheptanecarboxamide] | 0.56 µM
15 | CCC[C@H](NC)C(=O)N[C@H]1CC[C@@H]2CN(S(=O)(=O)c3ccco3)C[C@@H]21 [Example 547, N^1-[(3aR,4S,6aS)-2-(2-furylsulfonyl)octahydrocyclopenta[c]pyrrol-4-yl]-N^2-methyl-L-norvalinamide] | > 30 µM
16 | O=C(Nc1ccc(F)c(Cl)c1)N[C@H]1CC[C@@H]2CN(c3cccc(C(F)(F)F)n3)C[C@@H]21 [Example 714, 1-(3-chloro-4-fluorophenyl)-3-{(3aR,4S,6aS)-2-[6-(trifluoromethyl)pyridin-2-yl]octahydrocyclopenta[c]pyrrol-4-yl}urea] | 2.8 µM
17 | O=C(N[C@H]1CC[C@@H]2CN(c3ccc(F)c(C(F)(F)F)c3)C[C@@H]21)[C@@H]1C[C@@H](F)CN1 [Example 626, (4R)-4-fluoro-N-{(3aR,4S,6aS)-2-[4-fluoro-3-(trifluoromethyl)phenyl]octahydrocyclopenta[c]pyrrol-4-yl}-L-prolinamide] | 4.52 µM
18 | O=C(N[C@H]1CC[C@H]2CN(Cc3cccc(C(F)(F)F)c3)C[C@H]21)C(C1CCCCC1)C1CCCCC1 [Example 54, 2,2-dicyclohexyl-N-{(3aS,4S,6aR)-2-[3-(trifluoromethyl)benzyl]octahydrocyclopenta[c]pyrrol-4-yl}acetamide] | 0.46 µM
19 | CC(C)C[C@H](O)C(=O)N[C@H]1CC[C@@H]2CN(c3cccc(C(F)(F)F)n3)C[C@@H]21 [Example 567, (2S)-2-hydroxy-4-methyl-N-{(3aR,4S,6aS)-2-[6-(trifluoromethyl)pyridin-2-yl]octahydrocyclopenta[c]pyrrol-4-yl}pentanamide] | 0.4 µM
20 | CN[C@@H](CC(C)(C)C)C(=O)N[C@H]1CC[C@@H]2CN(Cc3ccccc3)C[C@@H]21 [Example 355, N^1-[(3aR,4S,6aS)-2-benzyloctahydrocyclopenta[c]pyrrol-4-yl]-N^2,4-dimethyl-L-leucinamide] | > 30 µM

Same assay, conditions: read-out: IC50 (μM) or percent inhibition (* indicates 3 minute incubation, otherwise 60 minute); IC50; 60 minute pre-incubation with compound; IMR32 cells, 80 mM KCl depolarization

Row | Structure (SMILES) | IC50
21 | CC(C)C(C(=O)N[C@H]1CC[C@@H]2CN(CCCc3cc(F)cc(Cl)c3)C[C@@H]21)c1ccccc1 (stereo partly drawn) [Example 114, N-{(3aR,4S,6aS)-2-[3-(3-chloro-5-fluorophenyl)propyl]octahydrocyclopenta[c]pyrrol-4-yl}-3-methyl-2-phenylbutanamide] | 2.81 µM
22 | CC(C)(C)[C@H](NS(C)(=O)=O)C(=O)N[C@H]1CC[C@@H]2CN(Cc3ccc(C(F)(F)F)cc3)C[C@@H]21 [Example 520, 3-methyl-N^2-(methylsulfonyl)-N^1-{(3aR,4S,6aS)-2-[4-(trifluoromethyl)benzyl]octahydrocyclopenta[c]pyrrol-4-yl}-L-valinamide] | 12.8 µM
23 | CCC[C@H](NC)C(=O)N[C@H]1CC[C@@H]2CN(C(=O)c3cccc(C(F)(F)F)c3)C[C@@H]21 [Example 554, N^2-methyl-N^1-{(3aR,4S,6aS)-2-[3-(trifluoromethyl)benzoyl]octahydrocyclopenta[c]pyrrol-4-yl}-L-norvalinamide] | 10.3 µM
24 | O=C(N[C@@H]1CC[C@H]2CN(Cc3ccc(F)cc3)C[C@H]21)[C@@H]1CCCCN1 [Example 368, (2S)-N-[(3aS,4R,6aR)-2-(4-fluorobenzyl)octahydrocyclopenta[c]pyrrol-4-yl]piperidine-2-carboxamide] | 12.4 µM
25 | CC[C@H](C(=O)N[C@H]1CC[C@H]2CN([C@@H](C)c3ccccc3)C[C@H]21)c1ccccc1 [Example 212, (2S)-2-phenyl-N-{(3aS,4S,6aR)-2-[(1S)-1-phenylethyl]octahydrocyclopenta[c]pyrrol-4-yl}butanamide] | 4.13 µM
26 | CN[C@@H](CC(C)C)C(=O)N[C@@H]1CC[C@H]2CN(Cc3ccc(F)cc3)C[C@H]21 [Example 450, N^1-[(3aS,4R,6aR)-2-(4-fluorobenzyl)octahydrocyclopenta[c]pyrrol-4-yl]-N^2-methyl-L-leucinamide] | 9.26 µM
27 | CC(C)C(C(=O)N[C@H]1CC[C@@H]2CN(Cc3cccc(Cl)c3)C[C@@H]21)c1ccccc1 (stereo partly drawn) [Example 86, N-[(3aR,4S,6aS)-2-(3-chlorobenzyl)octahydrocyclopenta[c]pyrrol-4-yl]-3-methyl-2-phenylbutanamide] | 1.63 µM
28 | CC(C)C[C@H](NC(=O)OC(C)(C)C)C(=O)N[C@@H]1CC[C@H]2CN(Cc3cccc(C(F)(F)F)c3)C[C@H]21 (relative stereo) [Example 148, N^2-(tert-butyloxycarbonyl)-N^1-{(3aS*,4R*,6aR*)-2-[3-(trifluoromethyl)benzyl]octahydrocyclopenta[c]pyrrol-4-yl}-L-leucinamide] | 0.83 µM
29 | CC(C)C(C(=O)N[C@H]1CC[C@@H]2CN(Cc3ccc(F)cc3)C[C@@H]21)c1ccccc1 (stereo partly drawn) [Example 89, N-[(3aR,4S,6aS)-2-(4-fluorobenzyl)octahydrocyclopenta[c]pyrrol-4-yl]-3-methyl-2-phenylbutanamide] | 2.01 µM
30 | CCC[C@H](N)C(=O)N[C@H]1CC[C@@H]2CN(Cc3ccc(C(F)(F)F)cc3)C[C@@H]21 [Example 382, N^1-{(3aR,4S,6aS)-2-[4-(trifluoromethyl)benzyl]octahydrocyclopenta[c]pyrrol-4-yl}-L-norvalinamide] | 14.4 µM
31 | CCC[C@H](NC)C(=O)N[C@H]1CC[C@@H]2CN(S(=O)(=O)c3cccs3)C[C@@H]21 [Example 533, N^2-methyl-N^1-[(3aR,4S,6aS)-2-(thien-2-ylsulfonyl)octahydrocyclopenta[c]pyrrol-4-yl]-L-norvalinamide] | 9.68 µM
